Results published in patent US10980766B2, “Entacapone-related compounds to treat macular degeneration” (National Institute of Biological Sciences, Beijing, priority 2016, dated 2021).
Marks after values point to notes of the source that are not given here.

Test system: hypoxia-induced retinopathy zebrafish model
Assay: hypoxia-induced retinopathy zebrafish model (cobalt chloride induced)
Assay type: in vivo
Conditions: for Blood vessel diameter (mean ± SE): cobalt chloride co-treatment for 4 days, n=10; for Recovery rate (%): blood vessel diameter recovery
Procedure: We measured the therapeutic efficacy of entacapone and representative entacapone derivatives in hypoxia-induced retinopathy zebrafish model (Cao et al., Hypoxia-induced retinopathy model in adult zebrafish. Nat Protoc 2010, 5 (12), 1903-10).
We measured the therapeutic effect of entacapone and several representative entacapone derivatives on hypoxia-induced retinopathy zebrafish model. The transgenic Tg (flila:EGFP) zebrafish were treated with cobalt chloride for 4 days to induce retinopathy. […] As positive control, zebrafish were treated with cobalt chloride and 100 μL/mL eye-drops augentropfen stulln mono containing 0.3 μg/mL digitalin and 2 μg/mL esculin.

[1] = 10 μM as printed in text, 4 days

CCN(CC)C(=O)/C(C#N)=C/c1cc(O)c(O)c([N+](=O)[O-])c1 [Entacapone, (2E)-2-cyano-3-(3,4-dihydroxy-5-nitrophenyl)-N,N-diethylprop-2-enamide]
Blood vessel diameter (mean ± SE) (5 μM): 19.33 ± 0.52 pixel
Blood vessel diameter (mean ± SE) (5 μM, listed as entacapone): 19.33 pixel
blood vessel diameter recovery rate [1]: 94%
retinal blood diameter [1]: 17.39
Blood vessel diameter (mean ± SE) (15 μM): 17.39 ± 0.49 pixel
Blood vessel diameter (mean ± SE) (50 μM): 17.47 ± 0.29 pixel
Blood vessel diameter (mean ± SE) (50 μM, listed as entacapone): 17.47 pixel
eye ball volume (in words) (after treatment, compared with model group): larger
Recovery rate (%) (5 μM, 4 days): 58*** %
Recovery rate (%) (5 μM, 4 days, listed as entacapone): 58%
Recovery rate (%) (15 μM, 4 days): 94*** %
Recovery rate (%) (50 μM, 4 days): 93*** %
Recovery rate (%) (50 μM, 4 days, listed as entacapone): 93%
retinal angiogenesis and retina structure (in words) (compared with model group): suppress hypoxia-induced retinal neoangiogenesis and improve histopathology of retinopathy
inner plexiform layer and outer plexiform layer thickness (in words) (treated groups compared with model group): thicker
